# Source: patent publication US7700577B2, “Carbohydrate based anti-bacterials” (Alchemia Limited, priority 2002, dated 2010)
# Key:
# [1] = tested on: S. aureus; experiment: MIC testing, broth microdilution (NCCLS), S. aureus; format: cell-based, Staphylococcus aureus; conditions: for SA24 (MIC): S. aureus after 24 hours exposure; for SA48 (MIC): S. aureus after 48 hours exposure
# Text: (§1) The broth microdilution format of the National Committee for Clinical Laboratory Standards (NCCLS) approved standard for susceptibility tests as outlined in M7-A4 “methods for dillution Antimicrobial susceptibility tests for bacteria that grow aerobically; approved standard—fifth edition”, January 2000 was utilized for minimum inhibitory concentration testing in Mueller-Hinton broth. The broth for Streptococcus pyogenes testing was supplemented with 2% laked horse blood. A positive result in initial testing was determined by complete inhibition of macroscopic bacterial growth at a concentration of 128 micrograms per mL after incubation for 16 to 24 hours at 37 degrees C. In the case of Micrococcus luteus, incubation was at 30 degrees C. […] Bacterial Types Are: • SA24 S. aureus after 24 hours exposure • SA48 S. aureus after 48 hours exposure • EC24 E. coli after 24 hours exposure
# [2] = tested on: E. coli; experiment: MIC testing, broth microdilution (NCCLS), E. coli; format: cell-based; conditions: E. coli after 24 hours exposure
# Text: as §1
Structure (SMILES),SA24 (MIC) [1],EC24 (MIC) [2],SA48 (MIC) [1]
Cc1ccc(NC(=N)NC2[C@H](O[C@@H]3C(NC(=O)Nc4cccc(C(F)(F)F)c4)COC(CO)[C@@H]3N)OC(CO)[C@@H](O)[C@@H]2O)cc1 (stereo partly shown) [compound 47],+ (+ indicates an MIC value of less than 128 micrograms per mL),,
O=C(Cc1ccc(C(F)(F)F)cc1)NC1COC(CO)C(NC(=O)c2ccc(-c3ccccc3)cc2)C1OC1OC(CO)C(O)C(O)C1NC(=O)Nc1cccc(C(F)(F)F)c1 (stereo not shown) [compound 7],+ (+ indicates an MIC value of less than 128 micrograms per mL),− (− indicates an MIC of greater then 128 micrograms per mL),+ (+ indicates an MIC value of less than 128 micrograms per mL)
N=C(Nc1cccc(C(F)(F)F)c1)NC1[C@H](O[C@@H]2C(NC(=N)Nc3cccc(C(F)(F)F)c3)COC(CO)[C@@H]2NC(=O)C(N)Cc2ccc(-c3ccccc3)cc2)OC(CO)[C@@H](O)[C@@H]1O (stereo partly shown) [compound 26],+ (+ indicates an MIC value of less than 128 micrograms per mL),+ (+ indicates an MIC value of less than 128 micrograms per mL),+ (+ indicates an MIC value of less than 128 micrograms per mL)
Cc1ccc(S(=O)(=O)NC2[C@H](O[C@@H]3C(NC(=O)Nc4cccc(C(F)(F)F)c4)COC(CO)[C@@H]3N)OC(CO)[C@@H](O)[C@@H]2O)cc1 (stereo partly shown) [compound 50],+ (+ indicates an MIC value of less than 128 micrograms per mL),,
NC1[C@H](O[C@@H]2C(NC(=O)Nc3cccc(C(F)(F)F)c3)COC(CO)[C@@H]2NC(=O)c2ccc(-c3ccccc3)cc2)OC(CO)[C@@H](O)[C@@H]1O (stereo partly shown) [compound 43],+ (+ indicates an MIC value of less than 128 micrograms per mL),,
N=C(Nc1cccc(C(F)(F)F)c1)NC1[C@H](O[C@@H]2C(NC(=N)Nc3cccc(C(F)(F)F)c3)COC(CO)[C@@H]2NC(=O)c2ccc(-c3ccccc3)cc2)OC(CO)[C@@H](O)[C@@H]1O (stereo partly shown) [compound 16],+ (+ indicates an MIC value of less than 128 micrograms per mL),+ (+ indicates an MIC value of less than 128 micrograms per mL),+ (+ indicates an MIC value of less than 128 micrograms per mL)
Cc1ccc(S(=O)(=O)NC2[C@H](O[C@@H]3C(NC(=N)Nc4cccc(C(F)(F)F)c4)COC(CO)[C@@H]3N)OC(CO)[C@@H](O)[C@@H]2O)cc1 (stereo partly shown) [compound 13],+ (+ indicates an MIC value of less than 128 micrograms per mL),,
Cc1ccc(S(=O)(=O)NC2COC(CO)[C@H](NC(=O)c3ccc(-c4ccccc4)cc3)[C@@H]2O[C@@H]2OC(CO)[C@@H](O)[C@H](O)C2NC(=O)Nc2cccc(C(F)(F)F)c2)cc1 (stereo partly shown) [compound 39],+ (+ indicates an MIC value of less than 128 micrograms per mL),− (− indicates an MIC of greater then 128 micrograms per mL),+ (+ indicates an MIC value of less than 128 micrograms per mL)
Cc1ccc(S(=O)(=O)NC2[C@H](O[C@@H]3C(NC(=O)Nc4cccc(C(F)(F)F)c4)COC(CO)[C@@H]3NC(=O)c3ccc(-c4ccccc4)cc3)OC(CO)[C@@H](O)[C@@H]2O)cc1 (stereo partly shown) [compound 49],,− (− indicates an MIC of greater then 128 micrograms per mL),+ (+ indicates an MIC value of less than 128 micrograms per mL)
N[C@H]1C(CO)OCC(NC(=O)Nc2cccc(C(F)(F)F)c2)[C@H]1O[C@@H]1OC(CO)[C@@H](O)[C@H](O)C1NC(=O)OCc1ccccc1 (stereo partly shown) [compound 45],+ (+ indicates an MIC value of less than 128 micrograms per mL),,
CC(C)=CCCC(C)=CCN[C@H]1C(CO)OCC(NC(=N)Nc2cccc(C(F)(F)F)c2)[C@H]1O[C@@H]1OC(CO)[C@@H](O)[C@H](O)C1NC(=N)Nc1cccc(C(F)(F)F)c1 (stereo partly shown) [compound 23],+ (+ indicates an MIC value of less than 128 micrograms per mL),+ (+ indicates an MIC value of less than 128 micrograms per mL),+ (+ indicates an MIC value of less than 128 micrograms per mL)
Cc1ccc(S(=O)(=O)NC2C(OC3C(NC(=N)Nc4cccc(C(F)(F)F)c4)COC(CO)C3NC(=O)c3ccc(-c4ccccc4)cc3)OC(CO)C(O)C2O)cc1 (stereo not shown) [compound 12],+ (+ indicates an MIC value of less than 128 micrograms per mL),+ (+ indicates an MIC value of less than 128 micrograms per mL),+ (+ indicates an MIC value of less than 128 micrograms per mL)
CCCCCCCCOc1ccc(C(=O)NC2C(CO)OCC(NC(=O)Nc3cccc(C(F)(F)F)c3)C2OC2OC(CO)C(O)C(O)C2NC(=O)Nc2cccc(C(F)(F)F)c2)cc1 (stereo not shown) [compound 64],+ (+ indicates an MIC value of less than 128 micrograms per mL),,+ (+ indicates an MIC value of less than 128 micrograms per mL)
O=C(N[C@H]1C(CO)OCC(NS(=O)(=O)c2cccc(C(F)(F)F)c2)[C@H]1O[C@@H]1OC(CO)[C@@H](O)[C@H](O)C1NS(=O)(=O)c1cccc(C(F)(F)F)c1)c1ccc(-c2ccccc2)cc1 (stereo partly shown) [compound 36],+ (+ indicates an MIC value of less than 128 micrograms per mL),,+ (+ indicates an MIC value of less than 128 micrograms per mL)
CCCCCCCCCCC(=O)NC1C(CO)OCC(NC(=O)NCCCC)C1OC1OC(CO)C(O)C(O)C1NS(=O)(=O)c1ccc(C)cc1 (stereo not shown) [compound 80],+ (+ indicates an MIC value of less than 128 micrograms per mL),,
CCCCCCCCCCC(=O)NC1C(CO)OCC(NC(=O)Nc2cccc(C(F)(F)F)c2)C1OC1OC(CO)C(O)C(O)C1NC(=O)OCc1ccccc1 (stereo not shown) [compound 78],+ (+ indicates an MIC value of less than 128 micrograms per mL),,
O=C(/C=C/c1ccc(Cl)cc1)N[C@H]1C(CO)OCC(NC(=O)Nc2cccc(C(F)(F)F)c2)[C@H]1O[C@@H]1OC(CO)[C@@H](O)[C@H](O)C1NC(=O)Nc1cccc(C(F)(F)F)c1 (stereo partly shown) [compound 58],+ (+ indicates an MIC value of less than 128 micrograms per mL),,+ (+ indicates an MIC value of less than 128 micrograms per mL)
CCCCCCCCCCC(=O)NC1C(CO)OCC(NC(=O)Nc2cccc(C(F)(F)F)c2)C1OC1OC(CO)C(O)C(O)C1NS(=O)(=O)c1ccc(C)cc1 (stereo not shown) [compound 79],+ (+ indicates an MIC value of less than 128 micrograms per mL),,
CCCCCN(CCCCC)C1C(CO)OCC(NC(=O)Nc2cccc(C(F)(F)F)c2)C1OC1OC(CO)C(O)C(O)C1NC(=O)Nc1cccc(C(F)(F)F)c1 (stereo not shown) [compound 60],+ (+ indicates an MIC value of less than 128 micrograms per mL),,+ (+ indicates an MIC value of less than 128 micrograms per mL)
CCCCCC(C)CCC(=O)N[C@H]1C(CO)OCC(NC(=O)Nc2cccc(C(F)(F)F)c2)[C@H]1O[C@@H]1OC(CO)[C@@H](O)[C@H](O)C1NC(=O)Nc1cccc(C(F)(F)F)c1 (stereo partly shown) [compound 55],+ (+ indicates an MIC value of less than 128 micrograms per mL),,+ (+ indicates an MIC value of less than 128 micrograms per mL)
O=C(Nc1cccc(C(F)(F)F)c1)NC1COC(CO)[C@H](NC(=O)c2ccc(-c3ccccc3)cc2)[C@@H]1O[C@@H]1OC(CO)[C@@H](O)[C@H](O)C1NC(=O)OCc1ccccc1 (stereo partly shown) [compound 44],+ (+ indicates an MIC value of less than 128 micrograms per mL),,+ (+ indicates an MIC value of less than 128 micrograms per mL)
